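Following 48 hours of exposure in 96-well plates, responses at five concentrations were used to interpolate endpoints linearly. At the GI50, growth is halved. TGI denotes the concentration required for complete inhibition of growth.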
How the values were obtained:
Assay in all cases: inhibition of tumour cell growth, NCI panel, 48 h
CCRF-CEM leukemia = tested on: CCRF-CEM leukemia
UACC-62 melanoma = tested on: UACC-62 melanoma
SNB-75 CNS = tested on: SNB-75 CNS
MDA-MB-231 breast = tested on: MDA-MB-231 breast
BT-549 breast = tested on: BT-549 breast
OVCAR-8 ovarian = tested on: OVCAR-8 ovarian
SK-MEL-2 melanoma = tested on: SK-MEL-2 melanoma
SF-295 CNS = tested on: SF-295 CNS
SK-MEL-28 melanoma = tested on: SK-MEL-28 melanoma
KM12 colon = tested on: KM12 colon
UO-31 renal = tested on: UO-31 renal
ACHN renal = tested on: ACHN renal
COLO 205 colon = tested on: COLO 205 colon
HL-60(TB) leukemia = tested on: HL-60(TB) leukemia
HCT-116 colon = tested on: HCT-116 colon
CAKI-1 renal = tested on: CAKI-1 renal
NCI-H522 lung = tested on: NCI-H522 lung
A498 renal = tested on: A498 renal
T-47D breast = tested on: T-47D breast
MALME-3M melanoma = tested on: MALME-3M melanoma
U251 CNS = tested on: U251 CNS
SNB-19 CNS = tested on: SNB-19 CNS
SF-268 CNS = tested on: SF-268 CNS
DU-145 prostate = tested on: DU-145 prostate
IGROV1 ovarian = tested on: IGROV1 ovarian
NCI-H460 lung = tested on: NCI-H460 lung
SK-OV-3 ovarian = tested on: SK-OV-3 ovarian

Nc1ccc2ccc(NS(=O)(=O)N3CCCCC3)cc2c1
TGI (CCRF-CEM leukemia): > 100000 nM
GI50 (UACC-62 melanoma): 301 nM
TGI (UACC-62 melanoma): > 100000 nM
GI50 (SNB-75 CNS): 446 nM
TGI (SNB-75 CNS): > 100000 nM
GI50 (MDA-MB-231 breast): 728 nM
TGI (MDA-MB-231 breast): > 33700 nM
GI50 (BT-549 breast): 690 nM
TGI (BT-549 breast): > 84300 nM
GI50 (OVCAR-8 ovarian): 1630 nM
TGI (OVCAR-8 ovarian): > 100000 nM
TGI (SK-MEL-2 melanoma): > 100000 nM
GI50 (SF-295 CNS): 228 nM
TGI (SF-295 CNS): 2880 nM
GI50 (SK-MEL-28 melanoma): 664 nM
TGI (SK-MEL-28 melanoma): > 100000 nM
GI50 (KM12 colon): 273 nM
TGI (KM12 colon): > 65700 nM
GI50 (UO-31 renal): 1700 nM
TGI (UO-31 renal): > 100000 nM
GI50 (ACHN renal): 3640 nM
TGI (ACHN renal): > 100000 nM
GI50 (COLO 205 colon): 369 nM
TGI (COLO 205 colon): 1650 nM
GI50 (HL-60(TB) leukemia): 327 nM
TGI (HL-60(TB) leukemia): > 100000 nM
GI50 (HCT-116 colon): 514 nM
TGI (HCT-116 colon): > 38700 nM
GI50 (CAKI-1 renal): 584 nM
TGI (CAKI-1 renal): > 100000 nM
GI50 (NCI-H522 lung): 205 nM
TGI (NCI-H522 lung): 760 nM
GI50 (A498 renal): 176 nM
TGI (A498 renal): 872 nM
GI50 (T-47D breast): 381 nM
TGI (T-47D breast): > 75300 nM
GI50 (MALME-3M melanoma): 489 nM
TGI (MALME-3M melanoma): > 100000 nM
GI50 (U251 CNS): 392 nM
TGI (U251 CNS): > 42000 nM
GI50 (SNB-19 CNS): 797 nM
TGI (SNB-19 CNS): > 100000 nM
GI50 (SF-268 CNS): 1570 nM
TGI (SF-268 CNS): > 100000 nM
GI50 (DU-145 prostate): 1450 nM
TGI (DU-145 prostate): 22200 nM
GI50 (IGROV1 ovarian): 765 nM
TGI (IGROV1 ovarian): > 100000 nM
GI50 (NCI-H460 lung): 409 nM
GI50 (SK-OV-3 ovarian): 498 nM

Source: PubChem BioAssay (NCI)
